The source of these data is PubChem BioAssay (NCI).

The structures appear in SMILES notation.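 Each compound was tested at five concentrations against cells in 96-well plates for 48 hours. GI50 marks 50% less growth. TGI is the concentration that stops growth completely.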 Where only a bound is given, the exact number is not on record here.

What all share (test): NCI-60 cell line screen, 48 h
For test [1], the system named is K-562 leukemia.
In test [2] the test system is HCC-2998 colon.
Test [3] deals with EKVX NSCLC.
Test [4] relates to SN12C renal.
Test [5] deals with A549 NSCLC.
In test [6] the test system is UO-31 renal.
The subject of test [7] is SNB-75 CNS.
In test [8] the test system is KM12 colon.
Test [9] relates to NCI-H522 lung.

With `COc1ccc(C2=NNC(=O)OC2c2ccccc2)cc1` (configuration not stated), the TGI in test [1], in test [2], in test [3], in test [4], in test [5] and in test [6] was > 100 µM each time. Moreover, the TGI in test [7] and in test [8] was > 100 µM throughout.

Consider `CN1C2(c3ccccc3)c3c(-c4ccccc4)sc(-c4ccccc4)c3C1(c1ccccc1)C1C(=O)N(c3ccccc3)C(=O)C12` (configuration not stated), for which the TGI in test [1], in [2], in test [9], in test [3], in test [4] and in test [5] was > 100 µM in each case. Also, the TGI in test [6], in test [7] and in test [8] was > 100 µM throughout.

Take `Cc1cc(N(CCC#N)S(C)(=O)=O)ccc1C=O`: the TGI in test [1], in test [2], in [9], in test [4], in test [5] and in [6] was > 100 µM in each case. In addition, the TGI in [7] and in test [8] was > 100 µM throughout.

With `Cn1c2c(c3ccccc31)C1CCCCC1C1C(=O)NC(=O)C21` (configuration not stated), the TGI in test [1], in test [2], in [3], in test [4], in [5] and in test [6] was > 100 µM each time. The figures for the TGI in [7] and in test [8] were 71.3 µM and > 100 µM, respectively.

With `COc1ccc2oc3c4c2c1CCC4CCC3=O` (configuration not stated), the TGI in [1], in [2], in test [9], in test [3], in test [4] and in test [5] was > 100 µM each time. Besides, the TGI in test [6] is 99.5 µM; in test [7] it was > 100 µM; in [8], > 100 µM.

As for `CC(C)(C)NN=C1C(C)(C)C(=NNC(C)(C)C)C1(C)C`, the TGI in test [1], in test [2], in test [9], in test [4], in test [5] and in test [6] was > 100 µM throughout. The TGI in test [7] and in [8] was > 100 µM in each case.

On to `CCn1c2c(n(CC)c1=S)-c1c(n(CC)c(=S)n1CC)SSSS2`, for which the TGI came to 8.97 µM in test [1]; 49.4 µM in [2]; 3.76 µM in test [9]; 21.4 µM in [3]; 24 µM in [4]; 68.4 µM in [5]. The results for the TGI in test [6], in test [7] and in test [8] were 21.5 µM, 26.6 µM and 35.9 µM, respectively.

Regarding `N/N=C1\C(=O)N(C2CCCCC2)C(=O)C1C(=O)NC1CCCCC1` (configuration not stated), the TGI is > 100 µM in test [1]; > 100 µM in test [2]; > 100 µM in test [9]; > 100 µM in [3]; 93.6 µM in test [4]; > 100 µM in test [5]. Also, the TGI in [6], in test [7] and in test [8] was > 100 µM throughout.

As to `CC(C)C1OC(=O)C=C1Sc1ccccc1` (configuration not stated), the TGI in [1], in [2], in [9], in test [3], in test [4] and in [5] was > 100 µM in each case. For the same molecule, the TGI in [7] and in test [8] was > 100 µM each time.

`Cc1ccc(-c2nc(SCC(=O)O)n[nH]2)cc1`: the TGI in [1], in test [2], in [9], in [3], in test [4] and in [5] was > 100 µM each time. Moreover, the TGI in test [6], in [7] and in [8] was > 100 µM throughout.

Consider `CCOC(=O)C(=O)Nc1c(F)cc(F)cc1Br`, for which the TGI in test [1], in test [2], in [3], in [4], in test [5] and in test [6] was > 100 µM throughout. The TGI in test [7] and in test [8] was > 100 µM each time.

For `COc1ccc(/C=C2\CCCCC2=O)cc1`, the TGI in [1], in test [3], in [4], in [5], in test [6] and in test [7] was > 100 µM in each case.

For `CN(C)c1ccc(N=Cc2c([O-])ccc3ccccc23)cc1.[C-]#[O+].[C-]#[O+].[Ir]`, the GI50 in test [1] was 37 µM; in [2] it was 18.8 µM; in test [9], 5.7 µM; in [3] it was 24.9 µM; in [4], 19 µM; in test [5], 31.8 µM. In addition, the GI50 was 15.6 µM in test [6], 19.3 µM in test [7] and 18 µM in test [8]. The TGI is > 100 µM in test [1]; 35.3 µM in test [2]; 18.6 µM in test [9]; 64.6 µM in test [3]; 35.5 µM in test [4]; 89.3 µM in test [5]. Besides, the TGI in test [6] came out at 36.4 µM; in [7], 50.4 µM; in [8], 37.7 µM.

In the case of `O=S(O)CCCCCSSCCCCSSCCCCCS(=O)O`, the TGI in test [1], in [9], in [3], in test [4], in test [5] and in test [6] was > 100 µM each time. Besides, the TGI in test [7] and in test [8] was > 100 µM in each case.

Turning to `O=C(CO)CC(=O)C(=O)Nc1nc([N+](=O)[O-])cs1`, the TGI in test [1], in test [2], in test [9], in test [3], in test [4] and in test [5] was > 100 µM each time. For the same molecule, the TGI in test [6], in test [7] and in test [8] was > 100 µM throughout.

Turning to `CC1C[C@H](OC(N)=O)C(C)CC1=O` (some centres not stated), the TGI in [1], in test [2], in [3], in [4], in test [5] and in [6] was > 100 µM in each case. The TGI in test [7] and in [8] was > 100 µM each time.

`CCOC(=O)N1CCc2cc(OC)c(OC)c3c2C1CC3=O` (configuration not stated): the TGI in [1], in test [2], in [9], in test [4], in [5] and in [6] was > 100 µM each time. Further, the TGI in test [7] and in test [8] was > 100 µM in each case.

Regarding `OCCCN=NNc1ccc(-c2nc3ccccc3[nH]2)cc1`, the GI50 in test [1] is 16.6 µM; in test [9] it was 12.5 µM; in [3], 15.5 µM; in test [4] it was 14.3 µM; in [5] it was 2.62 µM; in test [6], 23.9 µM. For the same molecule, the GI50 is 6.07 µM in test [7] and 5.12 µM in [8]. In addition, the TGI was 84.9 µM in [1]; 60.6 µM in test [9]; 52.6 µM in test [3]; 46.6 µM in [4]; > 100 µM in test [5]; 78.1 µM in test [6]. Further, the TGI in [7] came out at 38.6 µM; in test [8] it was 24.9 µM.

In the case of `N#CC(C(=O)/C(=N\Nc1nc(=S)[nH]n1N)C(C#N)c1ccc(Cl)cc1)c1ccc(Cl)cc1` (configuration not stated), the TGI in [2], in [3], in test [4], in test [5], in [6] and in test [7] was > 100 µM throughout. In addition, in test [8], the TGI was > 100 µM.

In the case of `COc1ccc(C(O)/C(=N\NC(N)=S)c2nc3ccc([N+](=O)[O-])cc3[nH]c2=O)cc1OC` (configuration not stated), the TGI in test [1], in test [2], in [9], in test [3], in test [5] and in test [6] was > 100 µM throughout. The TGI in [7] and in test [8] was > 100 µM in each case.

Take `Cc1cc2c(=O)n(-c3ccc(F)cc3)c(C)nc2c(C(=O)O)c1C`: the TGI in test [1], in [2], in [3], in [4], in [5] and in test [6] was > 100 µM each time. Further, the TGI in test [7] and in test [8] was > 100 µM in each case.

Regarding `CC(=O)O/N=C/c1ncccc1OC(C)=O`, the TGI in test [1], in test [9], in test [3], in test [4], in test [5] and in test [6] was > 100 µM each time. Besides, the TGI in test [7] and in [8] was > 100 µM in each case.
